Assay results taken from patent US7220735B2, “Benzimidazolone histamine H3 antagonists” (Schering Corporation, priority 2002, dated 2007).

Target: T1, H3 receptors (Cavia porcellus, UniProt Q9JI35)
T1 construct: The source of the H3 receptors in this experiment was guinea pig brain; from tissue; host or cells: guinea pig brain membranes
Test: H3-Receptor Binding Assay (guinea pig brain membranes)
Settings: 3 nM [3H]R-α-methyl histamine or 3 nM [3H]Nα-methyl histamine, 30° C., 30 min
Protocol: The source of the H3 receptors in this experiment was guinea pig brain. The animals weighed 400–600 g. The brain tissue was homogenized with a solution of 50 mM Tris, pH 7.5. The final concentration of tissue in the homogenization buffer was 10% w/v. […] The resulting supernatants were then centrifuged at 50,000×g for 20 min. in order to sediment the membranes, which were next washed three times in homogenization buffer (50,000×g for 20 min. each). The membranes were frozen and stored at −70° C. until needed.
All compounds to be tested were dissolved in DMSO and then diluted into the binding buffer (50 mM Tris, pH 7.5) such that the final concentration was 2 μg/ml with 0.1% DMSO. Membranes were then added (400 μg of protein) to the reaction tubes. The reaction was started by the addition of 3 nM [^3H]R-α-methyl histamine (8.8 Ci/mmol) or 3 nM [^3H]N^α-methyl histamine (80 Ci/mmol) and continued under incubation at 30° C. for 30 min. Bound ligand was separated from unbound ligand by filtration, and the amount of radioactive ligand bound to the membranes was quantitated by liquid scintillation spectrometry.

T1 sequence (Q9JI35 whole entry): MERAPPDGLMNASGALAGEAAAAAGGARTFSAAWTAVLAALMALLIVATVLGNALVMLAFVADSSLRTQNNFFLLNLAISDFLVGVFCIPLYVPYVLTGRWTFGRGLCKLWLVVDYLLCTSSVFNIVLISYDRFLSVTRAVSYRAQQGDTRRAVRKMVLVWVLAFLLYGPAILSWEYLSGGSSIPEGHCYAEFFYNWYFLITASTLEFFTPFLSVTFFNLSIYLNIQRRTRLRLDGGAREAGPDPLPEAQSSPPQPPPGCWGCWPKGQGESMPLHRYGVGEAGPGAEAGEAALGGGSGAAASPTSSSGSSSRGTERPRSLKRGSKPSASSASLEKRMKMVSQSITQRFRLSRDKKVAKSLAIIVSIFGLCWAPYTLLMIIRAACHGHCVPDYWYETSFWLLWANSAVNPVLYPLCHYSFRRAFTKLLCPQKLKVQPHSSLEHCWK

- Ki: 0.2 nM
Structure (SMILES): O=C(C1CCN(Cc2ccncc2)CC1)N1CCC(n2c(=O)n(CCn3cccc3)c3ccccc32)CC1 [Example 1AL]
